# Reference: patent US8927523B2, “Compound sea cucumber preparation and manufacturing method thereof” (Dalian Haiyantang Biology Co., Ltd., priority 2010, dated 2015)
# Tests used:
# [1] = system: experimental diabetic mice caused by alloxan; assay: Fasting plasma glucose of experimental diabetic mice caused by alloxan; format: in vivo; conditions: 200 mg/kg b.i.d. irrigating stomachs
# Procedure: Take male, 18˜22 g Kunming variety mice, randomly take 10 mice from them as normal control group. Other mice are injected with alloxan 50 mg/kg after fasting (water is allowed) for 16 h, determine the fasting plasma glucose (FPG) fasting for 5 h after the mice are stable for 15 days, mice with FPG>10 mmol/L are high plasma glucose model mice.
# 10 mice for normal control group. Take 40 high plasma glucose mice, randomly divide into high plasma glucose model group, compound sea cucumber preparation high dosage (0.5 g/kg) group, compound sea cucumber preparation low dosage (0.25 g/kg) group and positive drug metformin 200 mg/kg group.
# Mice of the compound sea cucumber preparation high dosage group and the compound sea cucumber preparation low dosage group are respectively treated with 0.025 g/ml and 0.0125 g/ml suspension of compound sea cucumber preparation and normal saline 0.2 mL/10 gBW by irrigating stomachs, mice of the metformin 200 mg/kg group are treated with […] metformin normal saline solution 0.2 mL/10 gBW by irrigating stomachs, while mice of the normal control group and high plasma glucose model group are treated with equal volume of normal saline by irrigating stomachs. Mice of each group are treated twice each day (b.i.d) continuously for 4 weeks.
# [2] = system: experimental diabetic mice caused by alloxan; assay: Glucose tolerance of experimental diabetic mice caused by alloxan; format: in vivo; conditions: 200 mg/kg b.i.d.
# Procedure: Building of mice high glucose model, animal grouping and treating ways are the same as above description.
# [formula] wherein, C is the plasma glucose value (mmol/L), t is the time after glucose load (h), i is the glucose value number; C0, C1, C2, C3, C4 are respectively plasma glucose value of before glucose load (0 min) and 30 min, 60 min, 120 min and 240 min after glucose load.
# [3] = system: insulin resistance HepG2 cells; assay: Glucose consumption of insulin resistance HepG2 cells (glucose oxidase method); format: cell-based, Human; conditions: 30 mg/L
# Procedure: (§1) Human liver cancer cell line HepG2 provided by Dalian Medical University is vaccinated in a DMEM culture medium which contains 10% volume fraction of fetal calf serum (supplementing penicillin, streptomycin […] respectively), and the culture medium is placed in a 5% CO2 cell culture box at 37° C. […] Incubate for 8 h in culture box in the conditions of 37° C. and 5% CO2 to form monolayer anchorage-dependent cells. Wash the cells twice with DMEM culture solution without fetal calf serum, then incubate the cells for 16 h with 5×10^−7 mol·L^−1 insulin culture solution in culture box in the conditions of 37° C. and 5% CO2. The HepG2 cells incubated for 16 h with insulin culture solution are model cells. Count the prepared cell suspension, adjust the cell concentration to 5×10^4·ml^−1, vaccinate on 96-well cell culture plate, 8-well in duplicate for each group, total amount of 200 uL for each well. The experiment is divided into 5 groups: normal control group, insulin resistance model group, compound sea cucumber preparation high and low dosage groups and metformin positive control group. Except the normal control group, each other group is incubated for 16 h after adding insulin with ultimate concentration of 5×10^−7 mol·L^−1 into culture solution so as to form insulin resistance model. […]
# [4] = system: insulin resistance HepG2 cells; assay: Glycerin consumption of insulin resistance HepG2 cells (GPO-POD enzyme method); format: cell-based, Human; conditions: 30 mg/L
# Procedure: as §1
# [5] = system: insulin resistance HepG2 cells; assay: Cell proliferation of insulin resistance HepG2 cells with MTT method; format: cell-based, Human; conditions: 30 mg/L
# Procedure: Human liver cancer cell line HepG2 provided by Dalian Medical University is vaccinated in a DMEM culture medium which contains 10% volume fraction of fetal calf serum (supplementing penicillin, streptomycin 100 U·L^−1 respectively), and the culture medium is placed in a 5% CO2 cell culture box at 37° C.
# [6] = vs high plasma glucose model group
# [7] = 28th day, 2 g/kg glucose by abdomen injection
# [8] = 24 h, compared with model group
smiles,measurement,setting,value
"CN(C)C(=N)N=C(N)N [Metformin, metformin]",Fasting Plasma Glucose (FPG) 7 days after treating,[1]; n=10,18.80 ± 2.77 mmol/L
same,Fasting Plasma Glucose (FPG) 14 days after treating,[1]; n=10,24.59 ± 4.17 mmol/L
same,Fasting Plasma Glucose (FPG) 21 days after treating,[1]; n=10,21.18 ± 3.12 mmol/L
same,Fasting Plasma Glucose (FPG) 28 days after treating,[1]; n=10,20.72 ± 3.03 mmol/L
same,Weight 28 days after treating,[1]; n=10,31.76 ± 1.74 g
same,FPG Reduce % 7 days after treating,[1]; [6],21.7%
same,FPG Reduce % 14 days after treating,[1]; [6],17.1%
same,FPG Reduce % 21 days after treating,[1]; [6],29.5%
same,FPG Reduce % 28 days after treating,[1]; [6],31.3%
same,"Area under the glucose load curve (ADC, mmol · h/L)","[2]; 28th day, 0-240 min, trapezoid area method",106.05 ± 12.0 mmol·h/L
same,Plasma Glucose after glucose load 30 min,[2]; [7],31.68 ± 2.78 mmol/L
same,Plasma Glucose after glucose load 60 min,[2]; [7],31.19 ± 3.42 mmol/L
same,Plasma Glucose after glucose load 120 min,[2]; [7],27.43 ± 4.37 mmol/L
same,Plasma Glucose after glucose load 240 min,[2]; [7],20.49 ± 2.58 mmol/L
same,AUC reduce %,"[2]; 28th day, vs high plasma glucose model group",18.2%
same,"Fasting Plasma Glucose (FPG, mmol/L)","[2]; 28th treating day, before glucose load",20.72 ± 3.03 mmol/L
same,Glucose consumption increase %,[3]; [8],115.10%
same,Glucose consumption,[3]; 24 h after treating,2.83 ± 0.14 mmol/L
same,Glycerin consumption increase %,[4]; [8],165.97%
same,Glycerin consumption,[4]; 24 h after treating,0.39 ± 0.02 mmol/L
same,Cell increase %,[5],0.28%
same,Cell survival %,[5],100.28 ± 1.93Δ %
